Data published in ChEMBL document CHEMBL1125022, “Chiral modifications of dolastatin 10: the potent cytostatic peptide (19aR)-isodolastatin 10” (1990).
In brackets after ≈: the same amount, converted by molar mass.

What follows are compounds tested on P388 (assay: Effect against cell growth of the P388 lymphocytic leukemia (PS system)). Details: Mus musculus, read-out: ED50 (the source's name).
Format: functional

Question: Which EC50 does the source give for `CC[C@@H](C)[C@@H]([C@@H](CC(=O)N1CCC[C@H]1[C@@H](OC)[C@@H](C)C(=O)N[C@@H](Cc1ccccc1)c1nccs1)OC)N(C)C(=O)[C@@H](NC(=O)[C@H](C(C)C)N(C)C)C(C)C` here?
Answer: 3.9 ng/mL (≈ 4.97 nM)

Question: Which EC50 does the source give for `CC[C@@H](C)[C@@H]([C@@H](CC(=O)N1CCC[C@H]1[C@H](OC)[C@H](C)C(=O)N[C@@H](Cc1ccccc1)c1nccs1)OC)N(C)C(=O)[C@@H](NC(=O)[C@H](C(C)C)N(C)C)C(C)C` here?
Answer: 5.6 ng/mL (≈ 7.13 nM)

Question: For `CC[C@@H](C)[C@H]([C@H](CC(=O)N1CCC[C@H]1[C@H](OC)[C@@H](C)C(=O)N[C@@H](Cc1ccccc1)c1nccs1)OC)N(C)C(=O)[C@@H](NC(=O)[C@H](C(C)C)N(C)C)C(C)C`, which EC50 is on record?
Answer: 3.2 ng/mL (≈ 4.08 nM)

Question: With `CCC(C)[C@H]([C@H](CC(=O)N1CCC[C@H]1[C@H](OC)[C@@H](C)C(=O)N[C@@H](Cc1ccccc1)c1nccs1)OC)N(C)C(=O)[C@@H](NC(=O)[C@H](C(C)C)N(C)C)C(C)C` (some centres undefined) as the compound, how does the EC50 read?
Answer: 3.2 ng/mL (≈ 4.08 nM)

Question: With `CCC(C)[C@@H]([C@@H](CC(=O)N1CCC[C@H]1[C@H](OC)[C@H](C)C(=O)N[C@@H](Cc1ccccc1)c1nccs1)OC)N(C)C(=O)[C@@H](NC(=O)[C@H](C(C)C)N(C)C)C(C)C` (some centres undefined) as the compound, how does the EC50 read?
Answer: 1.6 ng/mL (≈ 2.04 nM)

Question: Which EC50 does the source give for `CCC(C)[C@H]([C@@H](CC(=O)N1CCC[C@H]1[C@H](OC)[C@H](C)C(=O)N[C@@H](Cc1ccccc1)c1nccs1)OC)N(C)C(=O)[C@@H](NC(=O)[C@H](C(C)C)N(C)C)C(C)C` (some centres undefined) here?
Answer: > 1000 ng/mL

Question: For `CCC(C)[C@H]([C@H](CC(=O)N1CCC[C@H]1[C@H](OC)[C@H](C)C(=O)N[C@@H](Cc1ccccc1)c1nccs1)OC)N(C)C(=O)[C@@H](NC(=O)[C@H](C(C)C)N(C)C)C(C)C` (some centres undefined), which EC50 is on record?
Answer: 270 ng/mL (≈ 344 nM)

Question: `CCC(C)[C@@H]([C@H](CC(=O)N1CCC[C@H]1[C@H](OC)[C@H](C)C(=O)N[C@@H](Cc1ccccc1)c1nccs1)OC)N(C)C(=O)[C@@H](NC(=O)[C@H](C(C)C)N(C)C)C(C)C` (some centres undefined) was tested. Which EC50 did it give?
Answer: 620 ng/mL (≈ 790 nM)

Question: How did the EC50 turn out when `CC[C@@H](C)[C@H]([C@H](CC(=O)N1CCC[C@H]1[C@@H](OC)[C@H](C)C(=O)N[C@@H](Cc1ccccc1)c1nccs1)OC)N(C)C(=O)[C@@H](NC(=O)[C@H](C(C)C)N(C)C)C(C)C` was run?
Answer: 630 ng/mL (≈ 802 nM)

Question: Which EC50 does the source give for `CC[C@@H](C)[C@@H]([C@H](CC(=O)N1CCC[C@H]1[C@H](OC)[C@@H](C)C(=O)N[C@@H](Cc1ccccc1)c1nccs1)OC)N(C)C(=O)[C@@H](NC(=O)[C@H](C(C)C)N(C)C)C(C)C` here?
Answer: 600 ng/mL (≈ 764 nM)

Question: With `CC[C@@H](C)[C@H]([C@H](CC(=O)N1CCC[C@H]1[C@@H](OC)[C@@H](C)C(=O)N[C@@H](Cc1ccccc1)c1nccs1)OC)N(C)C(=O)[C@@H](NC(=O)[C@H](C(C)C)N(C)C)C(C)C` as the compound, how does the EC50 read?
Answer: 200 ng/mL (≈ 255 nM)

Question: For `CC[C@@H](C)[C@@H]([C@@H](CC(=O)N1CCC[C@H]1[C@H](OC)[C@@H](C)C(=O)N[C@@H](Cc1ccccc1)c1nccs1)OC)N(C)C(=O)[C@@H](NC(=O)[C@H](C(C)C)N(C)C)C(C)C`, which EC50 is on record?
Answer: 0.049 ng/mL (≈ 0.0624 nM)

Question: With `CC[C@@H](C)[C@H]([C@H](CC(=O)N1CCC[C@H]1[C@H](OC)[C@H](C)C(=O)N[C@@H](Cc1ccccc1)c1nccs1)OC)N(C)C(=O)[C@@H](NC(=O)[C@H](C(C)C)N(C)C)C(C)C` as the compound, how does the EC50 read?
Answer: 150 ng/mL (≈ 191 nM)

Question: For `CC[C@@H](C)[C@@H]([C@H](CC(=O)N1CCC[C@H]1[C@H](OC)[C@H](C)C(=O)N[C@@H](Cc1ccccc1)c1nccs1)OC)N(C)C(=O)[C@@H](NC(=O)[C@H](C(C)C)N(C)C)C(C)C`, which EC50 is on record?
Answer: 410 ng/mL (≈ 522 nM)

Question: With `CC[C@@H](C)[C@H]([C@@H](CC(=O)N1CCC[C@H]1[C@@H](OC)[C@H](C)C(=O)N[C@@H](Cc1ccccc1)c1nccs1)OC)N(C)C(=O)[C@@H](NC(=O)[C@H](C(C)C)N(C)C)C(C)C` as the compound, how does the EC50 read?
Answer: > 1000 ng/mL

Question: `CC[C@@H](C)[C@H]([C@@H](CC(=O)N1CCC[C@H]1[C@H](OC)[C@H](C)C(=O)N[C@@H](Cc1ccccc1)c1nccs1)OC)N(C)C(=O)[C@@H](NC(=O)[C@H](C(C)C)N(C)C)C(C)C` was tested. Which EC50 did it give?
Answer: > 1000 ng/mL

Question: For `CC[C@@H](C)[C@@H]([C@@H](CC(=O)N1CCC[C@H]1[C@@H](OC)[C@H](C)C(=O)N[C@@H](Cc1ccccc1)c1nccs1)OC)N(C)C(=O)[C@@H](NC(=O)[C@H](C(C)C)N(C)C)C(C)C`, which EC50 is on record?
Answer: 39 ng/mL (≈ 49.7 nM)

Question: `CC[C@@H](C)[C@@H]([C@H](CC(=O)N1CCC[C@H]1[C@@H](OC)[C@H](C)C(=O)N[C@@H](Cc1ccccc1)c1nccs1)OC)N(C)C(=O)[C@@H](NC(=O)[C@H](C(C)C)N(C)C)C(C)C` was tested. Which EC50 did it give?
Answer: > 1000 ng/mL

Question: For `CC[C@H](C)[C@@H]([C@@H](CC(=O)N1CCC[C@H]1[C@H](OC)[C@@H](C)C(=O)N[C@@H](Cc1ccccc1)c1nccs1)OC)N(C)C(=O)[C@@H](NC(=O)[C@H](C(C)C)N(C)C)C(C)C` [DOLASTATIN-10], which EC50 is on record?
Answer: 1 ng/mL (≈ 1.27 nM)
